Molecular target: T1, CTP synthase 1 (Homo sapiens, UniProt P17812)
T1 sequence (P17812 whole entry): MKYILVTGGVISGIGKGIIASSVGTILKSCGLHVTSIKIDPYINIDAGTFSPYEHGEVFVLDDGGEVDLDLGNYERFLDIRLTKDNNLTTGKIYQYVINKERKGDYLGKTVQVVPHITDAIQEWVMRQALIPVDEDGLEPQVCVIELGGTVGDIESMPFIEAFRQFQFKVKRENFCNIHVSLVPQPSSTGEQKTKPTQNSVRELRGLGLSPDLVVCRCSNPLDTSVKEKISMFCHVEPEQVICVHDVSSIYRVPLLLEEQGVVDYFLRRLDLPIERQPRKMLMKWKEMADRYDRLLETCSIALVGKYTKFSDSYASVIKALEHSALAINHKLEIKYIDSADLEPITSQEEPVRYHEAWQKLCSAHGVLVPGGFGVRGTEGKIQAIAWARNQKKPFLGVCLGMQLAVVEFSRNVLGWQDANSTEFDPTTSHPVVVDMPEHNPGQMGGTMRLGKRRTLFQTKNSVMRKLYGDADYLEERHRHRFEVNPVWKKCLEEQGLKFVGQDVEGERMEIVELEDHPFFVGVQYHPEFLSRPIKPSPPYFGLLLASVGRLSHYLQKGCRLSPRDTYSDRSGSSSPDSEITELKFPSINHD
Assay: Inhibition of C-terminal FLAG-His8-tagged full length human CTPS1 preincubated for 10 mins followed by substrate addition by ADP-Glo assay

IC50 | Structure (SMILES)
≤ 100 nM | COc1cncc(-c2ccc(NC(=O)C(C)(C)c3ccnc(NS(=O)(=O)C4CC4)n3)cc2)n1
≤ 100 nM | CC(C)(C(=O)Nc1ccc(-c2cncc(C(F)(F)F)n2)cc1)c1ccnc(NS(=O)(=O)C2CC2)n1
≤ 100 nM | CCC(NC(=O)c1ccc(-c2cncc(OC(C)C)n2)cc1)c1ccnc(NS(=O)(=O)C2CC2)n1 (stereo not drawn)
≤ 100 nM | CC(C)(C(=O)Nc1ccc(-c2cncc(C(F)(F)F)n2)cn1)c1ccnc(NS(=O)(=O)C2CC2)n1
≤ 100 nM | CCC(C(=O)Nc1ccc(-c2cncc(Cl)c2)cn1)c1ccnc(NS(=O)(=O)C2CC2)n1 (stereo not drawn)
≤ 100 nM | CC(C)(C(=O)Nc1ccc(-c2cncc(OC3CC3)n2)cn1)c1ccnc(NS(=O)(=O)C2CC2)n1
≤ 100 nM | CCOc1cncc(-c2ccc(NC(=O)C(C)(C)c3ccnc(NS(=O)(=O)C4CC4)n3)c(Cl)c2)n1
≤ 100 nM | CCOc1cncc(-c2ccc(NC(=O)C3(c4cccc(NS(=O)(=O)C5CC5)n4)CCOCC3)nc2)n1
≤ 100 nM | O=C(Cc1ccnc(NS(=O)(=O)C2CC2)n1)Nc1ccc(-c2cncc(OCC(F)(F)F)n2)cc1
≤ 100 nM | CCOc1cncc(-c2ccc(NC(=O)C3(c4ccnc(NS(=O)(=O)C5CC5)n4)CCOCC3)cc2)n1
≤ 100 nM | CCOc1cncc(-c2ccc(NC(=O)C(C)(C)c3ccnc(NS(C)(=O)=O)n3)cc2)n1
≤ 100 nM | O=C(Cc1ccnc(NS(=O)(=O)C2CC2)n1)Nc1ccc(-c2cncc(C(F)(F)F)n2)cc1F
≤ 100 nM | CCOc1cncc(-c2ccc(NC(=O)C(C)(C)c3ccnc(NS(=O)(=O)C4CC4)n3)cn2)n1
≤ 100 nM | CC(C)Oc1cncc(-c2ccc(NC(=O)C(C)(C)c3ccnc(NS(=O)(=O)C4CC4)n3)cc2)n1
≤ 100 nM | CCOc1cncc(-c2ccc(NC(=O)C(C)(C)c3ccnc(NS(=O)(=O)C4CC4)n3)c(OC(F)(F)F)c2)n1
≤ 100 nM | CCOc1cncc(-c2ccc(C(=O)NC(CC)c3cncc(NS(=O)(=O)C4CC4)n3)c(F)c2)n1 (stereo not drawn)
≤ 100 nM | CCOc1cncc(-c2cc(F)c(NC(=O)C(C)(C)c3ccnc(NS(=O)(=O)C4CC4)n3)c(F)c2)n1
≤ 100 nM | CCOc1cncc(-c2ccc(NC(=O)C3(c4ccnc(NS(=O)(=O)C5CC5)n4)CCC(O)CC3)nc2)n1 (stereo in doubt) [listing 1 of 2 here]
≤ 100 nM | CCOc1cncc(-c2ccc(NC(=O)C(C)(C)c3ccnc(NS(=O)(=O)C4CC4)n3)c(OC)c2)n1
≤ 100 nM | CCC(C(=O)Nc1ccc(-c2cncc(C3CC3)n2)cn1)c1ccnc(NS(=O)(=O)C2CC2)n1 (stereo not drawn)
≤ 100 nM | COc1cncc(-c2ccc(NC(=O)Cc3cccc(NS(=O)(=O)C4CC4)n3)cc2)n1
≤ 100 nM | CCOc1cncc(-c2ccc(NC(=O)C(F)(c3ccnc(NS(=O)(=O)C4CC4)n3)C(C)C)nc2)n1 (stereo not drawn)
≤ 100 nM | CCOc1cncc(-c2ccc(NC(=O)C(c3ccnc(NS(=O)(=O)C4CC4)n3)C(C)C)c(F)c2)n1 (stereo not drawn)
≤ 100 nM | CCOc1cncc(-c2ccc(NC(=O)C(CC)c3nccc(NS(=O)(=O)C4CC4)n3)nc2)n1 (stereo not drawn)
≤ 1000 nM | CCS(=O)(=O)Nc1nccc(C(C)(C)C(=O)Nc2ccc(-c3cncc(OC)n3)cc2F)n1
≤ 100 nM | CCOc1cncc(-c2ccc(NC(=O)C(CC)(CC)c3ccnc(NS(=O)(=O)C4CC4)n3)cc2)n1
≤ 100 nM | CC(C)(C(=O)Nc1ccc(-c2cncc(OC(F)F)c2)cc1)c1ccnc(NS(=O)(=O)C2CC2)n1

IC50 | Structure (SMILES)
≤ 100 nM | CC(C)(C(=O)Nc1ccc(-c2cncc(C(F)(F)F)n2)cc1F)c1ccnc(NS(=O)(=O)C2CC2)n1
≤ 100 nM | CCOc1cncc(-c2ccc(NC(=O)C3(c4ccnc(NS(=O)(=O)C5CC5)n4)CCC(OC)CC3)nc2)n1 (stereo not drawn)
≤ 100 nM | CCOc1cncc(-c2ccc(NC(=O)C3(c4ccnc(NS(=O)(=O)C5CC5)n4)CCC(N(C)C)CC3)nc2)n1 (stereo in doubt; form 1)
≥ 1000 nM | Cc1ncc(-c2ccc(NC(=O)C(C)(C)c3ccnc(NS(C)(=O)=O)n3)c(C)c2)cn1
≤ 100 nM | CCOc1cncc(-c2cnc(NC(=O)C(C)(C)c3ccnc(NS(=O)(=O)C4CC4)n3)c(F)c2)n1
≤ 100 nM | CCC(C(=O)Nc1ccc(-c2cncc(OC)n2)cc1)c1ccnc(NS(=O)(=O)C2CC2)n1 (stereo not drawn)
≤ 100 nM | CCC(C(=O)Nc1ccc(-c2cncc(C3CC3)n2)cc1F)c1ccnc(NS(=O)(=O)C2CC2)n1 (stereo not drawn)
≤ 100 nM | CCC(F)(C(=O)Nc1ccc(-c2cncc(Cl)c2)cn1)c1ccnc(NS(=O)(=O)C2CC2)n1 (stereo not drawn)
≤ 100 nM | CCC(C(=O)Nc1ccc(-c2cncc(OC(C)C)n2)cc1F)c1ccnc(NS(=O)(=O)C2CC2)n1 (stereo not drawn)
≤ 100 nM | CCOc1cncc(-c2ccc(NC(=O)C3(c4ccnc(NS(=O)(=O)C5CC5)n4)CC4(C3)OCCO4)nc2)n1
≤ 100 nM | CCOc1cncc(-c2cnc(NC(=O)C(CCOC)c3ccnc(NS(=O)(=O)C4CC4)n3)c(F)c2)n1 (stereo not drawn)
≤ 100 nM | CCC(C(=O)Nc1ccc(-c2cncc(OCC(F)(F)F)n2)cn1)c1ccnc(NS(=O)(=O)C2CC2)n1 (stereo not drawn)
≤ 100 nM | CCC(C(=O)Nc1ccc(-c2cncc(C(F)(F)F)n2)cc1F)c1ccnc(NS(=O)(=O)C2CC2)n1 (stereo not drawn)
≤ 100 nM | CCOc1cncc(-c2ccc(NC(=O)C3(c4ccnc(NS(=O)(=O)C5(C#N)CC5)n4)CCOCC3)nc2)n1
≤ 100 nM | CCOc1cncc(-c2ccc(NC(=O)C(OC)c3cncc(NS(=O)(=O)C4CC4)n3)cc2)n1 (stereo not drawn)
≤ 100 nM | CCOc1cncc(-c2ccc(NC(=O)C(C)(OC)c3cncc(NS(=O)(=O)C4CC4)n3)nc2)n1 (stereo not drawn)
≤ 100 nM | O=C(Cc1ccnc(NS(=O)(=O)C2CC2)n1)Nc1ccc(-c2cncc(C(F)(F)F)n2)cc1
≤ 100 nM | CCC(F)(C(=O)Nc1ccc(-c2cncc(C3CC3)n2)cn1)c1ccnc(NS(=O)(=O)C2CC2)n1 (stereo not drawn)
≤ 100 nM | CCOc1cncc(-c2ccc(NC(=O)C(c3ccnc(NS(=O)(=O)C4CC4)n3)C(C)C)nc2)n1 (stereo not drawn)
≤ 100 nM | CCC(C(=O)Nc1ccc(-c2cncc(OC(C)C)n2)cc1)c1ccnc(NS(=O)(=O)C2CC2)n1 (stereo not drawn)
≤ 100 nM | CCOc1cncc(-c2ccc(NC(=O)C(F)(F)c3ccnc(NS(=O)(=O)C4CC4)n3)c(F)c2)n1
≤ 100 nM | CCOc1cncc(-c2ccc(NC(=O)C(OC)c3cncc(NS(=O)(=O)C4CC4)n3)nc2)n1 (stereo not drawn)
10000 nM | CCOc1cccc(-c2ccc(NC(=O)C(C)(C)c3ccnc(NS(=O)(=O)C4CC4)n3)cc2)c1
≤ 100 nM | COc1cncc(-c2ccc(NC(=O)Cc3ccnc(NS(=O)(=O)C4CC4)n3)cc2)n1
≤ 100 nM | CCOc1cncc(-c2ccc(NC(=O)C(F)(CC)c3ccnc(NS(=O)(=O)C4CC4)n3)nc2)n1 (stereo in doubt; form 1) [listing 1 of 2 here]
≤ 100 nM | CCOc1cncc(-c2ccc(NC(=O)C(F)(CC)c3cncc(NS(=O)(=O)C4CC4)n3)nc2)n1 (stereo in doubt; form 1)

Species: Homo sapiens
Assay: Selectivity ratio of IC50 for human CTPS2 to IC50 for human CTPS1 by RapidFire/MS analysis

Ratio IC50 | Structure (SMILES)
2 | CCOc1cncc(-c2ccc(NC(=O)C(F)(CC)c3ccnc(NS(=O)(=O)C4CC4)n3)nc2)n1 (stereo in doubt; form 2)
30 | CCOc1cncc(-c2ccc(NC(=O)C(C)(OC)c3cncc(NS(=O)(=O)C4CC4)n3)nc2)n1 (stereo in doubt; form 2)
2 | CCOc1cncc(-c2ccc(NC(=O)C(F)(CC)c3cncc(NS(=O)(=O)C4CC4)n3)nc2)n1 (stereo in doubt; form 3)
30 | CCOc1cncc(-c2ccc(NC(=O)C(CC)c3cccc(NS(=O)(=O)C4CC4)n3)cc2)n1 (stereo not drawn)
2 | CCC(C(=O)Nc1ccc(-c2cncc(C(F)(F)F)n2)cc1)c1ccnc(NS(=O)(=O)C2CC2)n1 (stereo not drawn)
> 60 | CCOc1cncc(-c2ccc(NC(=O)C3(c4ccnc(NS(=O)(=O)C5CC5)n4)CCC(N(C)C)CC3)nc2)n1 (stereo in doubt; form 2)
30 | CC(C)(C(=O)Nc1ccc(-c2cncc(C3CC3)n2)cn1)c1ccnc(NS(=O)(=O)C2CC2)n1
30 | CCOc1cncc(-c2ccc(NC(=O)C(F)(CC)c3ccnc(NS(=O)(=O)C4CC4)n3)nc2)n1 (stereo in doubt; form 1) [listing 2 of 2 here]
30 | O=C(Cc1ccnc(NS(=O)(=O)C2CC2)n1)Nc1ccc(-c2cccnc2)cc1
2 | CCC(C(=O)Nc1ccc(-c2cncc(Cl)c2)cc1)c1ccnc(NS(=O)(=O)C2CC2)n1 (stereo not drawn)
> 60 | CCOc1cncc(-c2ccc(NC(=O)C(F)(CC)c3cncc(NS(=O)(=O)C4CC4)n3)nc2)n1 (stereo in doubt; form 2)
2 | CCOc1cncc(-c2ccc(NC(=O)C(C)(C)c3nc(NS(=O)(=O)C4CC4)ncc3C)cc2)n1
2 | CC(C)(C(=O)Nc1ccc(-c2cccnc2)cc1)c1ccnc(NS(=O)(=O)C2CC2)n1
30 | CC(C)c1cncc(-c2ccc(NC(=O)C(C)(C)c3ccnc(NS(=O)(=O)C4CC4)n3)cc2)n1
> 60 | CCOc1cncc(-c2ccc(NC(=O)C3(c4ccnc(NS(=O)(=O)C5CC5)n4)CCC(O)CC3)nc2)n1 (stereo in doubt) [listing 2 of 2 here]
2 | CC(C)(C(=O)Nc1ccc(-c2cncc(C3CC3)n2)cc1F)c1ccnc(NS(=O)(=O)C2CC2)n1
> 60 | CCOc1cncc(-c2ccc(NC(=O)C3(c4ccnc(NS(=O)(=O)N(C)C)n4)CCOCC3)nc2)n1
30 | CCOc1cncc(-c2ccc(NC(=O)C(C)(C)c3ccnc(NS(=O)(=O)CC)n3)cc2)n1
2 | CC(C)Oc1cncc(-c2ccc(C(=O)NC(C)(C)c3cncc(NS(=O)(=O)C4CC4)n3)c(F)c2)n1
30 | CCOc1cncc(-c2ccc(NC(=O)C(C)(C)c3ccnc(NS(C)(=O)=O)n3)nc2)n1

Source: ChEMBL document CHEMBL5393444, “Sulfonamide derivatives as ctps1 inhibitors” (2022)
